Laboratory results published in US9572878B2, “Method of combination therapy using an EGFR antagonist and anti-c-Met antibody” (SAMSUNG ELECTRONICS CO., LTD., priority 2013, dated 2017).

Experiments:
HCC827 ER #15 cell line = assay: Confirmation of erlotinib resistance, cell number by CCK-8; type: cell-based, human; details: HCC827 ER #15 vs HCC827; various concentrations, 120 hours; FIG. 3
Protocol: HCC827 human lung cancer cell line was in vitro treated with an EGFR antagonist erlotinib for a given period to establish HCC827 ER(HCC827 erlotinib-resistant) cell line. More specifically, HCC827 human lung cancer cell line (CRL-2868, ATCC) was in vitro treated with an EGFR antagonist erlotinib (Roche) in an amount of 5 nM to 10 nM for 5 months or more, to construct Erlotinib resistant cell (ER cell) clone.

HCC827 ER #15 = assay: Combined use of erlotinib and antibodies in erlotinib resistant cell line, cell number by CCK-8; type: cell-based, human
Protocol: In a 96 well plate, diluted HCC827 ER #15 was seeded at 5000 cells/well in a […] medium (GIBCO) containing 10% FBS, and then, incubated at 37° C. overnight. On the next day, the medium was replaced with a RPMI1640 medium containing 1% FBS (GIBCO), and then, the antibody was serially diluted from 100 ug/ml, and the cells were treated therewith at 100 ul. For co-administration, the cells were treated with 10 nM or 100 nM erlotinib, together with the antibody. After 5 days, the number of cells was measured using a CCK-8 reagent (Dojindo laboratory).

c-Met = c-Met (Homo sapiens, UniProt P08581); assay: Specificity of expressed scFv of huAbF46; type: binding; details: expressed scFv product
c-Met, sequence (P08581 25-1390): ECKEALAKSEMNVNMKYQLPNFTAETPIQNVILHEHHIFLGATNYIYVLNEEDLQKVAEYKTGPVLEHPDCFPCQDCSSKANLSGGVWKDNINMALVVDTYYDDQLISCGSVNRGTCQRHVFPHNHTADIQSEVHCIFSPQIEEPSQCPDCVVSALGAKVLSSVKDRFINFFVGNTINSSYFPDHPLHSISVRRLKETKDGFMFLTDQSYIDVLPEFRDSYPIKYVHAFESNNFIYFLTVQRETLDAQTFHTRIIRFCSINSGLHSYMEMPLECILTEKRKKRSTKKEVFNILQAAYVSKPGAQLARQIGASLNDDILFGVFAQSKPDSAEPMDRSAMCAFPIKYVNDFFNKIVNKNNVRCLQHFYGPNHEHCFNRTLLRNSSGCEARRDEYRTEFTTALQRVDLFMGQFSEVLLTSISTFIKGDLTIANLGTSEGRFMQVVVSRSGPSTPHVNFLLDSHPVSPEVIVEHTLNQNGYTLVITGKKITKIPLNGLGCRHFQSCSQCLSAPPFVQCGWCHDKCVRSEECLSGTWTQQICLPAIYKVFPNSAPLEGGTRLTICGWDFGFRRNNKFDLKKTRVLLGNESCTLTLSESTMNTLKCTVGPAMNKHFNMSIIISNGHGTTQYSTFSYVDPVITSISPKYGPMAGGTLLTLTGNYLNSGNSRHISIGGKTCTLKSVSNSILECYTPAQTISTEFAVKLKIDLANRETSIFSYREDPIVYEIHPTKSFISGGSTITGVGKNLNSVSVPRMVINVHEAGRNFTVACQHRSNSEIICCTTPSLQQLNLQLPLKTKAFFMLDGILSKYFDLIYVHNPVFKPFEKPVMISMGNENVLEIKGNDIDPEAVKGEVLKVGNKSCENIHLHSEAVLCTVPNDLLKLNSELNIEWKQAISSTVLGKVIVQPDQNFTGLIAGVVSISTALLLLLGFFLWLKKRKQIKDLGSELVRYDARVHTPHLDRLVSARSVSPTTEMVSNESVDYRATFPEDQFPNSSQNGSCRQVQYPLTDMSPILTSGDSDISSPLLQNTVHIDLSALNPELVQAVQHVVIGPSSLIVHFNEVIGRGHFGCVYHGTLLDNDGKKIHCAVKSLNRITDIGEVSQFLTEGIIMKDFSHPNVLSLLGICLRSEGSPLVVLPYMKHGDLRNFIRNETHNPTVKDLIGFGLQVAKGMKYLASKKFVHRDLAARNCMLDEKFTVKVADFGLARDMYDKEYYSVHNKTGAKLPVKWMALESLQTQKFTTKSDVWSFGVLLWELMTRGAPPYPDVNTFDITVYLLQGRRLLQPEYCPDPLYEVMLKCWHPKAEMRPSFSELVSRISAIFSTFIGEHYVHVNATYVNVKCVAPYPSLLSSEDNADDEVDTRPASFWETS
Description: For use in constructing an scFv of the huAbF46 antibody from the heavy and light chain variable regions of the huAbF46 antibody, a gene was designed to have the structure of “VH-linker-VL” for each of the heavy and the light chain variable region, with the linker having the amino acid sequence “[…]” (SEQ ID NO: 54). A polynucleotide sequence (SEQ ID NO: 55) encoding the designed scFv of huAbF46 was synthesized in Bioneer and an expression vector for the polynucleotide had the nucleotide sequence of SEQ ID NO: 56.

Molecule: C#Cc1cccc(Nc2ncnc3cc(OCCOC)c(OCCOC)cc23)c1 [erlotinib]
- resistance of cell line to EGFR antagonist (HCC827 ER #15 cell line): resistance occurred

Molecule: Rituximab [reference compound]
- synergistic effect of co-administration with erlotinib (HCC827 ER #15; HCC827 ER #15, antibody dilution series with 10 nM or 100 nM erlotinib, 5 days, FIGS. 4a-4d): synergistic effect was not observed
- synergistic effects on cell viability, co-administration with erlotinib at fixed concentrations (HCC827 ER #15; HCC827 ER#15, antibodies 0.14 μg/ml, erlotinib 10 nM, FIG. 5): synergistic effects were not observed

B1: scFv of huAbF46: VH-linker-VL single-chain Fv of the huAbF46 antibody (polynucleotide SEQ ID NO: 55) (protein)
scFv: EVQLVESGGGLVQPGGSLRLSCAASGFTFTDYYMSWVRQAPGKGLEWLGFIRNKANGYTTEYSASVKGRFTISRDNSKNTLYLQMNSLRAEDTAVYYCARDNWFAYWGQGTLVTVSSGLGGLGGGGSGGGGSGGSSGVGSDIQMTQSPSSLSASVGDRVTITCKSSQSLLASGNQNNYLAWHQQKPGKAPKMLIIWASTRVSGVPSRFSGSGSGTDFTLTISSLQPEDFATYYCQQSYSAPLTFGQGTKVEIKR
- specificity to c-Met (c-Met): exhibit specificity to c-Met
